Consider two compounds from article PMC3083410, “A Soluble Acetylcholinesterase Provides Chemical Defense against Xenobiotics in the Pinewood Nematode” (PLoS ONE, 2011).

Molecules are shown by their SMILES.

Broadly, the inhibition is the percentage by which the read-out fell short of the control.

One test deals with T1, BxACE-3 (Bursaphelenchus xylophilus, UniProt D2JYX1).
T1 construct: gene AChE3; recombinant, baculovirus system
Kind of test: colorimetric acetylthiocholine/DTNB assay. Type of test: biochemical. Conditions: read-out: % inhibition at 2 mM.

A further test addresses T2, BxACE-1 (Bursaphelenchus xylophilus, UniProt D2JYW9).
T2 construct: gene AChE1; recombinant, baculovirus system
Kind of test: colorimetric acetylthiocholine/DTNB assay. Type of test: biochemical. Conditions: read-out: % inhibition at 2 mM.

T1 sequence (D2JYX1 entry or part of it): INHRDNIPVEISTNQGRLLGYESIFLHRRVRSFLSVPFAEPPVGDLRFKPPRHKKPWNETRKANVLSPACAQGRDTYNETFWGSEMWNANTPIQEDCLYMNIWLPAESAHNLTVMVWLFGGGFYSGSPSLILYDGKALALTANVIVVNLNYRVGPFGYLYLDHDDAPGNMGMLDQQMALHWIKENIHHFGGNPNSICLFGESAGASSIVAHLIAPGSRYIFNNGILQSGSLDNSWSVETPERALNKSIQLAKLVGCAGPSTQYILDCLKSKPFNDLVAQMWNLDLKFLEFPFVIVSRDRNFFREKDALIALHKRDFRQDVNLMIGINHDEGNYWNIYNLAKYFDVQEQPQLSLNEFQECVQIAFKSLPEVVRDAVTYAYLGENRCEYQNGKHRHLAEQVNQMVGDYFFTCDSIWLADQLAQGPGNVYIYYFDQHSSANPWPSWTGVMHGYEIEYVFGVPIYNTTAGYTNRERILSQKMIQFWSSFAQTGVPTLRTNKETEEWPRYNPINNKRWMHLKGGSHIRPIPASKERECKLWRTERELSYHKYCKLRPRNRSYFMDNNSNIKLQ
T2 sequence (D2JYW9 entry or part of it): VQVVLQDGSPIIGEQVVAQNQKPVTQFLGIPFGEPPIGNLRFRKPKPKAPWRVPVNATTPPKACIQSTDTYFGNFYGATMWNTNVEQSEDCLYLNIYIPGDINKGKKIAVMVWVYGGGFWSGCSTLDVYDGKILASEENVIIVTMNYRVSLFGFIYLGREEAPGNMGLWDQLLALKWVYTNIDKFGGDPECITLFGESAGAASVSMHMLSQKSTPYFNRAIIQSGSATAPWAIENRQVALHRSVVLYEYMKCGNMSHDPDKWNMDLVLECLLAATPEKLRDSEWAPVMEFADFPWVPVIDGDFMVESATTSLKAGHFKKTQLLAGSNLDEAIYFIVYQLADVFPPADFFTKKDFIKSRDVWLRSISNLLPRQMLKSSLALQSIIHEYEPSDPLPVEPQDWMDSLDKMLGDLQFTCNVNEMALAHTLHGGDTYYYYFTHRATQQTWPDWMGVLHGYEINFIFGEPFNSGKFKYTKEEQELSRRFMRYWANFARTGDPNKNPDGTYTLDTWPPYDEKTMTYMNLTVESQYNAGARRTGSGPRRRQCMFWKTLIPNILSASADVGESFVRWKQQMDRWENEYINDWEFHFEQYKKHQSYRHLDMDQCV

As for `C=C(C)C1CC=C(C)CC1` (stereo not drawn) [limonene], the inhibition at 2000 µM at BxACE-3 is ~10%.

Take `CC1=CCC2CC1C2(C)C` (stereo not drawn) [α-pinene]: the inhibition at 2000 µM on BxACE-3 was ~10%; on BxACE-1 it was ~25%.
